Results reported in patent publication US20240008482A1, “METHOD OF IN[…] VIRUS USING A GLUT[…] COMPOSITION” (priority 2021, published 2024).

Columns and labels:
SARS-CoV (Isolate FFM-1) = conditions: cited from earlier work
SARS-CoV (Hanoi strain) = conditions: cited from earlier work
HCoV-229E = conditions: 2% glutaraldehyde; cited from earlier work
adenovirus type 5 = format: cell-based
MNV = format: cell-based, Murine Norovirus (MNV)
poliovirus type 1 = format: cell-based

SMILES | time to inactivate the virus (SARS-CoV (Isolate FFM-1)) [min] | time to inactivate the virus (SARS-CoV (Hanoi strain)) [min] | effectiveness against the virus (HCoV-229E) | time after which a 4 log10 reduction is achieved (adenovirus type 5) [minutes] | reduction of viral titre achieved (MNV) [log10] | reduction of viral titre achieved (poliovirus type 1) [log10]
O=CCCCC=O [glutaraldehyde] | 2 | 5 | effective |  |  | 
C=O [formaldehyde] |  |  |  | 30 | < 4 | < 4
